How the values were obtained:
[1] = test system: human monocytes and macrophages (THP-1 cells); test: Cytokine production in THP-1 monocytes and macrophages (ELISA/qRT-PCR); type: cell-based; conditions: 100 nM; for cytokine modulation profile (reduction of pro-inflammatory, increase of anti-inflammatory cytokines): monocytes and macrophages; for production of pro-inflammatory cytokines (TNF-α, IFN-γ, IL-1β, IL-6): unstimulated monocytes and macrophages, 24 h
Method: Six representative CB2R agonists (16i, 16j, 18e, 18f, 18o, and 18p) were evaluated for their ability to modulate the production of key pro- (e.g., TNF-α, IFN-γ, IL-1β, IL-6) and anti-inflammatory (e.g., IL-4, IL-10) cytokines in human monocytes and macrophages, where CB2R is abundantly expressed. The experiments were performed both in basal and LPS-activated states and would allow to gain insight into how these compounds affect circulating leukocytes (monocytes) and tissue-resident cells (macrophages). To mimic an inflammatory environment, both cell types were also treated with LPS, enabling an assessment of the anti-inflammatory potential of the compounds in both resting and activated states. Alongside the selected ligands, the study included HU308, a well-established CB2R-selective agonist known for its anti-inflammatory properties, and SR144528, a CB2R-selective antagonist. SR144528 was used alone and in combination with the test compounds to confirm that the observed effects were specifically mediated through CB2R activation.
8 Cytokines levels in human monocytes (A, B) and macrophages (C, D) treated with CB2R ligands. THP-1 cells either untreated (A-B) or treated (C, D) with 0.01 μM PMA for 48 h to differentiate them into macrophages, were incubated for additional 24 h in the absence (A, C) or presence of 10 μg/mL LPS (B, D), without (Ctrl) or with the CB2R reference agonist HU308, the reference antagonist SR144528 and the CB2R ligands 16i, 16j, 18e, 18f, 18o, 18p at 100 nM. All the compounds were tested alone (solid bars) and in the presence of the CB2R antagonist SR144528 (striped bars). Cytokine levels were measured by ELISA coupled with qRT-PCR. Data are means ± SD (n = 3). Two-way ANOVA followed by Tukey’s posthoc test was applied. *p < 0.05; **p < 0.01; ***p < 0.001; ****p < 0.0001; * indicates vs Ctrl.
The amount of cytokines was measured in 5 μL of supernatants, derived from 1 × 10^4 cells, using the ProQuantum immunoassays kits for TNF-α, IFN-γ, IL-1β, IL-6, IL-10, and IL-4 [all from ThermoFisher Scientific (Waltham, MA)] according to the manufacturer’s instructions. The results were expressed as pg/mL based on the titration curved of each kits.

CB2R [2] = molecular target: T1, CB2R (Homo sapiens, UniProt P34972); test: CB2R radioligand binding competition ([3H]CP55,940); design: expressed in transfected cells; host or cells: HEK-293T (HEK-CB2 cell line); conditions: for Ki: displacement of [3H]CP 55,940, membranes of HEK-293T cells, n = 3; for SI Ki CB1R/Ki CB2R: selectivity index, affinity ratio
T1 sequence (P34972 whole entry): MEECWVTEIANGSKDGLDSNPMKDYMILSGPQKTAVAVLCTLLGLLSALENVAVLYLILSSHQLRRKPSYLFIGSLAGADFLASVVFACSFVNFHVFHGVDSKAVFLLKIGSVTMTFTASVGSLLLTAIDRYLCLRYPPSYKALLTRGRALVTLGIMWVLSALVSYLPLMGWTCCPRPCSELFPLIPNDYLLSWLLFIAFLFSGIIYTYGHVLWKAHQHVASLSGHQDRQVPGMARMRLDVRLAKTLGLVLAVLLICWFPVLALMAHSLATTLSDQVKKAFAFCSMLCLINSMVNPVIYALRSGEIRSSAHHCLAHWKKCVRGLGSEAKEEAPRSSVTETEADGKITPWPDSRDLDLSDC

CB2R [3] = molecular target: T1, CB2R; test: CB2R cAMP determination after forskolin stimulation in transfected HEK-293T cells; type: cell-based; design: expressed in transfected cells; host or cells: HEK-293T, transient transfection (PEI); conditions: for Emax: HEK-293T, normalized to maximal efficacious concentration of CP 55,940, read-out: CB2R Emax AMPc (converted); for EC50: transfected HEK-293T cells, forskolin-stimulated cAMP, read-out: CB2R EC50 AMPc
Method: (§1) Initially we tested their ability to modify CB2R-mediated cAMP accumulation, providing insights into their functional behavior as either agonists or antagonists (Table ). Moreover, the signaling profiles of selected ligands were investigated through their impact on β-arrestin recruitment and Mitogen-Activated Protein Kinase (MAPK) phosphorylation pathway, enabling a more comprehensive evaluation of their intracellular signaling profiles (Table ).
HEK-293T cells were grown in Dulbecco’s Modified Eagle’s Medium (DMEM) medium (Gibco, Paisley, Scotland, United Kingdom) supplemented with 2 mM L-glutamine, 100 U/mL penicillin/streptomycin, MEM Non-Essential Amino Acids Solution (1/100) and 5% (v/v) heat inactivated Fetal Bovine Serum (FBS) (Invitrogen, Paisley, Scotland, United Kingdom). Cells were maintained in a humid atmosphere of 5% CO2 at 37 °C. Cells were transiently transfected with the PEI (Polyethylenimine, Sigma, St. Louis, MO, United States) method as previously described and used for functional assays 48 h later.
Signaling experiments have been performed as previously described. Two hours before initiating the experiment, HEK-293T cell-culture medium was replaced by serum-starved DMEM medium. Then, cells were detached, resuspended in growing medium containing […] zardaverine (Tocris, Bristol, U.K.) and placed in 384-well microplates (2500 cells/well). Cells were pretreated (15 min) with cannabinoid compounds (1 nM to 100 μM) -or vehicle- before adding […] forskolin (Tocris, Bristol, U.K.) to induce cAMP accumulation. Readings were performed after 15 min incubation at 25 °C. Homogeneous Time Resolved Fluorescence (HTRF) energy transfer measures were performed using the Lance Ultra cAMP kit (PerkinElmer, Waltham, MA, United States). Fluorescence at 665 nm was analyzed in a PHERA star Flagship microplate reader equipped with an HTRF optical module (BMG Lab Technologies, Offenburg, Germany).

CB2R [4] = molecular target: T1, CB2R; test: CB2R β-arrestin recruitment; type: cell-based; design: expressed in transfected cells; host or cells: HEK-293T, transient transfection (PEI); conditions: for Emax: normalized to CP 55,940
Text: as §1
(§2) JWH-133, a well-known nonbiased (balanced) agonist, was employed as the reference for comparing the signaling profiles of the tested compounds. An operational model analysis was applied to quantify the functional bias of each CB2R-selective agonist. This involved calculating the bias factor by comparing the signaling pathways: β-arrestin versus cAMP, MAPK versus cAMP, and β-arrestin versus MAPK.

CB2R [5] = molecular target: T1, CB2R; test: Signaling bias quantification (relative activity model, JWH-133 reference); type: cell-based; design: expressed in transfected cells; host or cells: HEK-293T, transient transfection (PEI); conditions: in parentheses
Text: as §2

## NC(=O)[C@@H]1CCCCN1C(=O)c1cn(CC2CCCCC2)c2ccccc12 [18e]
[1]
  cytokine modulation profile (reduction of pro-inflammatory, increase of anti-inflammatory cytokines): limited efficacy
  production of pro-inflammatory cytokines (TNF-α, IFN-γ, IL-1β, IL-6): significantly reduced
CB2R [2]
  Ki: 30.2 ± 1.2 nM
  SI Ki CB1R/Ki CB2R: >100
CB2R [3]
  Emax: 82%
  EC50: 1701 ± 12 nM
CB2R [4]
  EC50: 0.4 ± 0.08 nM
  Emax: 120%
CB2R [5]
  Preferred (biased) pathway MAPK – cAMP: MAPK
  Preferred (biased) pathway β-arrestin – MAPK: MAPK
  Preferred (biased) pathway β-arrestin – cAMP: β-arrestin

## CCCCCn1nc(C(=O)N2CCCC[C@H]2C(=O)OC)c2ccccc21 [16i]
[1]
  cytokine modulation profile (reduction of pro-inflammatory, increase of anti-inflammatory cytokines): significant reduction
  production of pro-inflammatory cytokines (TNF-α, IFN-γ, IL-1β, IL-6): significantly reduced
CB2R [2]
  Ki: 10.9 ± 0.5 nM
  SI Ki CB1R/Ki CB2R: 62
CB2R [3]
  Emax: 64%
  EC50: 0.03 ± 0.01 nM
CB2R [4]
  EC50: 1.09 ± 0.01 nM
  Emax: 48%
CB2R [5]
  Preferred (biased) pathway MAPK – cAMP: G protein
  Preferred (biased) pathway β-arrestin – MAPK: MAPK
  Preferred (biased) pathway β-arrestin – cAMP: G protein

## NC(=O)[C@H]1CCCCN1C(=O)c1nn(Cc2ccc(F)cc2)c2ccccc12 [18p]
[1]
  cytokine modulation profile (reduction of pro-inflammatory, increase of anti-inflammatory cytokines): significant reduction
  production of pro-inflammatory cytokines (TNF-α, IFN-γ, IL-1β, IL-6): significantly reduced
CB2R [2]
  Ki: 120 ± 5 nM
  SI Ki CB1R/Ki CB2R: >100
CB2R [3]
  Emax: 58%
  EC50: 6.8 ± 0.3 nM
CB2R [4]
  EC50: 326 ± 4 nM
  Emax: 77%
CB2R [5]
  Preferred (biased) pathway MAPK – cAMP: MAPK
  Preferred (biased) pathway β-arrestin – MAPK: MAPK
  Preferred (biased) pathway β-arrestin – cAMP: G protein

## CCCCCn1nc(C(=O)N2CCCC[C@@H]2C(=O)OC)c2ccccc21 [16j]
[1]
  cytokine modulation profile (reduction of pro-inflammatory, increase of anti-inflammatory cytokines): significant reduction
  production of pro-inflammatory cytokines (TNF-α, IFN-γ, IL-1β, IL-6): significantly reduced
CB2R [2]
  Ki: 89.1 ± 3.1 nM
  SI Ki CB1R/Ki CB2R: >100
CB2R [3]
  Emax: 53%
  EC50: 0.09 ± 0.01 nM
CB2R [4]
  EC50: 0.28 ± 0.02 nM
  Emax: 65%
CB2R [5]
  Preferred (biased) pathway MAPK – cAMP: No bias
  Preferred (biased) pathway β-arrestin – MAPK: MAPK
  Preferred (biased) pathway β-arrestin – cAMP: G protein

## NC(=O)[C@@H]1CCCCN1C(=O)c1nn(Cc2ccc(F)cc2)c2ccccc12 [18o]
[1]
  cytokine modulation profile (reduction of pro-inflammatory, increase of anti-inflammatory cytokines): significant reduction
  production of pro-inflammatory cytokines (TNF-α, IFN-γ, IL-1β, IL-6): significantly reduced
CB2R [2]
  Ki: 54.6 ± 1.1 nM
  SI Ki CB1R/Ki CB2R: >100
CB2R [3]
  Emax: 60%
  EC50: 0.6 ± 0.09 nM
CB2R [4]
  EC50: 60.9 ± 2.5 nM
  Emax: 148%
CB2R [5]
  Preferred (biased) pathway MAPK – cAMP: MAPK
  Preferred (biased) pathway β-arrestin – MAPK: MAPK
  Preferred (biased) pathway β-arrestin – cAMP: G protein

## NC(=O)[C@H]1CCCCN1C(=O)c1cn(CC2CCCCC2)c2ccccc12 [18f]
[1]
  cytokine modulation profile (reduction of pro-inflammatory, increase of anti-inflammatory cytokines): limited efficacy
  production of pro-inflammatory cytokines (TNF-α, IFN-γ, IL-1β, IL-6): significantly reduced
CB2R [2]
  Ki: 96.8 ± 2.6 nM
  SI Ki CB1R/Ki CB2R: >100
CB2R [3]
  Emax: 55%
  EC50: 118 ± 4 nM
CB2R [4]
  EC50: 0.08 ± 0.01 nM
  Emax: 88%
CB2R [5]
  Preferred (biased) pathway MAPK – cAMP: MAPK
  Preferred (biased) pathway β-arrestin – MAPK: MAPK
  Preferred (biased) pathway β-arrestin – cAMP: β-arrestin
